# Read-outs that look alike come from different tables or passages of the source.
# What was measured:
# [1] = Toxicity of compounds, MTT assay; assay type: cell-based, human; settings: human, foreskin fibroblasts, MTT, 48 hours, read-out: percent survival of uninfected human fibroblasts
# Method: Toxicity of compounds. Toxicity of the different doses of the various analogues were performed at least in triplicates, using a modification of the Microculture Tetrazolium (MTT) assay and uninfected monolayers of human foreskin fibroblasts. Briefly, confluent cells were incubated for at least 24 hours in the 96-well flat bottom microtiterplates (~10^5 /200 μL/well) and incubated at 37° C. in 5% CO2, 95% air to allow the cells to attach. The medium was then replaced with 200 μL of fresh medium. […] The cultures were then incubated for 48 hours, after which 50 μL of sterile MTT solution (2 mg/1 mL PBS) was added to each well. MTT solution was sterilized by filtration through 0.22 μm filters (Costar, Cambridge, Mass.). After 4 hours incubation, the medium was removed and 100 μL of dimethylsulfoxide (DMSO) was added to each well and the plates were shaken gently for 2-3 minutes to dissolve the formed formazan crystals. The absorbance was measured at 540 nm, using a computerized microtiterplate reader (Themomax, Molecular Division)
# [2] = test system: Toxoplasma gondii grown in human fibroblasts; assay: Incorporation of radiolabeled uracil (parasite survival); assay type: cell-based; settings: Toxoplasma gondii, Fibroblast, read-out: percent survival of Toxoplasma gondii grown in human fibroblasts
# Method: Incorporation of Radiolabeled Uracil. […] Uptake and incorporation of radiolabeled uracil into nucleic acids of T. gondii were carried out, at least in triplicates, in tissue culture, using monolayers of human foreskin fibroblasts infected with T. gondii. The fibroblasts were cultured in no more than 30 passages in Dulbecco's modified Eagle medium, containing 100 units/mL penicillin G and 100 μg/mL streptomycin sulfate, and 10% FBS, pH 7.2. Briefly, confluent cells (4-5 day incubation) were cultured for 24 hours in the 24-well flat bottom microtiterplates (~5×10^5 /1 mL/well) and incubated at 37° C. in 5% CO2, 95% air to allow the cells to attach. The medium was then removed and the cells were infected with isolated T. gondii in medium with 3% FBS (1 parasite/cell). After 1 hour incubation, the cultures were washed with media with 10% FBS to remove extracellular parasites. FBS was maintained at a final concentration of 10%. […] After an additional 18 hours incubation, the medium was replaced with 1 mL drug free media containing […] (2 μCi/mL) and incubated for another 6 hours, after which the media was removed. The fibroblasts were released from the wells by trypsinization with the addition of 200 μL trypsin/EDTA (2.5×) to each well. After 10 minutes incubation, 1 mL of ice cold 10% trichloroacetic acid (TCA) was added to each well. The plates were then placed on a shaker to insure the detachment of the cells. The suspended contents of each well were filtered through GF/A 2.4 cm glass microfiber filters (Whatman, Hillsboro, Oreg.), which were prewashed each with 1 mL double distilled H2 O and dried. After filtration, the filters were washed with 10 mL methanol, left to dry, and then placed in scintillation vials containing 5 mL of Econo-Safe scintillation fluor (Research Products International Corp., Mount Prospect, Ill.), and radioactivity was counted using an LS5801 Beckman scintillation counter.
# [3] = molecular target: T. gondii adenosine kinase (Toxoplasma gondii, UniProt Q9TVW2); assay: biochemical; settings: for Decrease in binding to T. gondii adenosine kinase: relative to reference compound adenosine; for inhibition at 1000 µM: read-out: Inhibition of T. gondii adenosine kinase
# Sequence of T. gondii adenosine kinase (Q9TVW2 whole entry): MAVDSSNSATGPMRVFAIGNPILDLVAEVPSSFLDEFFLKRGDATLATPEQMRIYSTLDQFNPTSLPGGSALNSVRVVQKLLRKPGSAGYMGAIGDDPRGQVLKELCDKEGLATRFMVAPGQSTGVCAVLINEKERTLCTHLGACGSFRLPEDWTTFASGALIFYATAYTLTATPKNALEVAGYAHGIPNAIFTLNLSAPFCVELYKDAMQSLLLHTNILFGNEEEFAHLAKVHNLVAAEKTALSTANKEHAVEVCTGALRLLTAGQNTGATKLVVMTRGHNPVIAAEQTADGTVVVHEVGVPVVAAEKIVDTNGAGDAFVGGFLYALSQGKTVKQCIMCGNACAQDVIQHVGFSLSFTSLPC
# Method: Preparation of cytosol extracts. For the structure activity relationships studies, approximately 5×10^8 T. gondii were suspended in 1.2 ml of 50 mM N-2-hydroxyethylpiperazine-N'-2-ethanesulfonic acid (HEPES)-Cl (pH 8.0)/1 mM dithiothreitol and homogenized for 30 seconds at setting 10, using a Brinnmann Instruments Polytron homogenizer fitted with a PTA 7K1 probe. The homogenate was then centrifuged at approximately 116,000 g for 1 hour at 5° and the supernatant (cytosol extract) collected and used as the enzyme source. Fresh cytosol extracts were prepared for each experiment.
# Adenosine kinase assay. T. gondii adenosine kinase activity was measured by following the formation of [^14 C]AMP from [^14 C]adenosine and ATP. […] Therefore, the standard reaction mixture contained 50 mM HEPES-Cl (pH 8.0), 1 mM dithiothreitol, 5 μM [8-^14 C]adenosine (45 Ci/mol), 0.5 mM ATP, 0.5 mM MgCl2, 25 μM (+)-EHNA or 100 μM (±)-EHNA,10-30 μl of cytosol extract (approximately 3-10 μg of protein), and either 0, 0.1, 0.25, 0.5 or 1.0 mM of the compound to be tested, in a final volume of 150 μl.
# Reactions were started by the addition of [8-^14 C]adenosine, incubated at 37° for 10 minutes and terminated by placing the reaction tubes in a boiling water bath for 2 minutes. Precipitated proteins were removed by centrifugation in a microcentrifuge (approximately 13,000 g) for 5 minutes, and a 15 μl aliquot of the resulting supernatant was mixed with 5 μl of a solution containing 10 mM each of AMP and adenosine. This mixture was then spotted on silica gel thin layer chromatography plates which were developed with a mixture of chloroform/methanol/acetic acid (16:3:1). […] The substrate and product spots (which accounted for all of the radioactivity on the plates) were identified by UV quenching, cut out, and the radioactivity quantitated by liquid scintillation counting in 20 ml of Scintilene, using a Packard 460 scintillation counter. […] Enzyme velocity was calculated by multiplying the fraction of AMP formed from adenosine times the amount of adenosine in the assay, and dividing by the incubation time.
# Determination and significance of AppKi values. AppKi values were used to determine the relative degree of binding of compounds to adenosine kinase as compared to adenosine. AppKi values were estimated from Dixon plots of the data (1/.nu. versus [I]), using a computer program with least squares fitting according to the general principles of Cleland (Cleland, W W, The statistical analysis of enzyme kinetic data. Adv. Enzymol. 29:1-32, 1967). The program was written by Dr. Sungman Cha (Brown University, Providence, R.I.) and modified to fit IBM BASIC by Dr. Fardos N. M. Naguib. […] It should be noted, however, that the type of inhibition (i.e., competitive, noncompetitive, or uncompetitive) produced by the compounds was not determined, nor were the compounds evaluated as substrates for T. gondii adenosine kinase.
# [4] = 5 μM, [5,6-3H]uracil incorporation
# [5] = 10 μM, [5,6-3H]uracil incorporation
# [6] = 25 μM, [5,6-3H]uracil incorporation
# [7] = 50 μM, [5,6-3H]uracil incorporation
# [8] = AppKi for inhibition of T. gondii adenosine kinase, 5 μM adenosine, ± range, at least two estimations
smiles,measurement,setting,value
[N-]=[N+]=Nc1ccc(CNc2ncnc3c2ncn3[C@@H]2O[C@H](CO)[C@@H](O)[C@H]2O)cc1,"viability at 48 h, 5 µM",[1],97.3%
same,"viability at 48 h, 10 µM",[1],90.3%
same,"viability at 48 h, 25 µM",[1],88.9%
same,"viability at 48 h, 50 µM",[1],81.5%
same,activity at 5 µM,[2]; [4],36.9%
same,activity at 10 µM,[2]; [5],17%
same,activity at 25 µM,[2]; [6],15.1%
same,activity at 50 µM,[2]; [7],24.5%
O=[N+]([O-])c1ccc(CNc2ncnc3c2ncn3[C@@H]2O[C@H](CO)[C@@H](O)[C@H]2O)cc1,"viability at 48 h, 5 µM",[1],104%
same,"viability at 48 h, 10 µM",[1],102%
same,"viability at 48 h, 25 µM",[1],92.3%
same,"viability at 48 h, 50 µM",[1],107%
same,activity at 5 µM,[2]; [4],35.9%
same,activity at 10 µM,[2]; [5],27.6%
same,activity at 25 µM,[2]; [6],21.6%
same,activity at 50 µM,[2]; [7],8.4%
"O=[N+]([O-])c1ccc(C[Se]c2ncnc3c2ncn3[C@@H]2O[C@H](CO)[C@@H](O)[C@H]2O)cc1 [Compound 24, 6-(p-Nitrobenzyl)selenopurine riboside]","viability at 48 h, 5 µM",[1],89.3%
same,"viability at 48 h, 10 µM",[1],90.1%
same,"viability at 48 h, 25 µM",[1],63.4%
same,"viability at 48 h, 50 µM",[1],39.6%
same,activity at 5 µM,[2],67.8%
same,activity at 10 µM,[2],3.03%
same,activity at 25 µM,[2],0%
same,activity at 50 µM,[2],0%
"O=C(Nc1ncnc2c1ncn2[C@@H]1O[C@H](CO)[C@@H](O)[C@H]1O)c1ccccc1 [Compound 44, N^6 -Benzoyladenosine]","viability at 48 h, 5 µM",[1],94.4%
same,"viability at 48 h, 10 µM",[1],94.1%
same,"viability at 48 h, 25 µM",[1],97.6%
same,"viability at 48 h, 50 µM",[1],99.3%
same,activity at 5 µM,[2]; [4],96.4%
same,activity at 10 µM,[2]; [5],94.6%
same,activity at 25 µM,[2]; [6],112%
same,activity at 50 µM,[2]; [7],100%
"Nc1ccc(CNc2ncnc3c2ncn3[C@@H]2O[C@H](CO)[C@@H](O)[C@H]2O)cc1 [Compound 46, N^6 -(p-Aminobenzyl)adenosine]","viability at 48 h, 5 µM",[1],93.3%
same,"viability at 48 h, 10 µM",[1],91.9%
same,"viability at 48 h, 25 µM",[1],101%
same,"viability at 48 h, 50 µM",[1],101%
same,activity at 5 µM,[2]; [4],100%
same,activity at 10 µM,[2]; [5],95.6%
same,activity at 25 µM,[2]; [6],108%
same,activity at 50 µM,[2]; [7],120%
"Nc1ncnc2c1ncn2[C@@H]1O[C@](F)(COS(N)(=O)=O)[C@@H](O)[C@H]1O [Compound 111, 4'-Flouro-5'-O-sulfamoyladenosine (nucleocidin)]",Ki,[3]; [8],850 ± 220 µM
"Nc1ncnc2c1ncn2[C@@H]1C=C(CO)[C@@H](O)[C@H]1O [Compound 114, Neplanocin A]",Ki,[3],37 ± 10 µM
same,Decrease in binding to T. gondii adenosine kinase,[3],5.3 fold
"Nc1ncnc2nc[nH]c12 [Compound 115, Adenine]",Ki,[3],6500 µM
same,Decrease in binding to T. gondii adenosine kinase,[3],930 fold
"Cn1cnc2c(ncn2[C@H]2C[C@H](O)[C@@H](CO)O2)c1=N [Compound 116, 1-Methyl-2'-deoxyadenosine]",Ki,[3],8000 µM
"CNc1ncnc2c1ncn2[C@H]1C[C@H](O)[C@@H](CO)O1 [Compound 117, N^6 -Methyl-2'-deoxyadenosine]",inhibition at 1000 µM,[3],< 10%
"O=C(Nc1ncnc2c1ncn2[C@H]1C[C@H](O)[C@@H](CO)O1)c1ccccc1 [Compound 118, N^6 -Benzoyl-2'-deoxyadenosine]",Ki,[3],590 ± 20 µM
"CN(C)c1ncnc2c1ncn2[C@@H]1O[C@H](CO)[C@@H](N)[C@H]1O [Compound 119, N^6 -Dimethyl-3'-amino-3'-deoxyadenosine]",Ki,[3]; [8],540 ± 80 µM
"NC(=O)c1cn([C@@H]2O[C@H](CO)C[C@H]2O)c2ncnc(N)c12 [Compound 120, 7-Deaza-7-carboxamido-3'-deoxyadenosine (3'-Deoxysangivamycin)]",Ki,[3]; [8],110 ± 20 µM
same,Reduction of binding to T. gondii adenosine kinase,[3]; relative to sangivamycin,2 fold
"Nc1nc2c(ncn2[C@@H]2O[C@H](CO)[C@@H](O)[C@H]2F)c(=O)[nH]1 [Compound 121, 2'-Fluoro-2'-deoxyguanosine]",inhibition at 1000 µM,[3],< 10%
"CC1(C)O[C@@H]2[C@H](O1)[C@@H](CO)O[C@H]2n1cnc2c(=S)[nH]cnc21 [Compound 122, 2',3'-O-Isopropylidene-6-mercaptopurine riboside]",Ki,[3],3900 µM
"NC(=O)c1ncn([C@@H]2O[C@H](CO)[C@@H](O)[C@H]2O)c1N [Compound 123, 5'-Aminoimidazole-4-carboxamide riboside]",Ki,[3],2400 µM
"COc1ccc(C[C@H](N)C(=O)N[C@H]2[C@@H](O)[C@H](n3cnc4c(N(C)C)ncnc43)O[C@@H]2CO)cc1 [Compound 124, 3'(α-Amino-p-methoxyhydrocinnamamido)-3'-deoxy-N^6-dimethyladenosine (Puromycin)]",Ki,[3],1300 µM
"Nc1ncnc(NC2C=C(CO)C(O)C2O)c1[N+](=O)[O-] (stereo not shown) [Compound 125, 4-(3-Hydroxymethyl-4,5-dihydroxy-2-cyclopenten-1-yl)amino-5-nitro-6-aminopyrimidine]",inhibition at 1000 µM,[3],< 10%
"O=c1[nH]cnc(NC2C=C(CO)C(O)C2O)c1[N+](=O)[O-] (stereo not shown) [Compound 126, 4-(3-Hydroxymethyl-4,5-dihydroxy-2-cyclopenten-1-yl)amino-1,6-dihydro-5-nitro-6-oxopyrimidine]",inhibition at 1000 µM,[3],< 10%
"Nc1nc(NC2C=C(CO)C(O)C2O)c([N+](=O)[O-])c(=O)[nH]1 (stereo not shown) [Compound 127, 2-Amino-4-(3-hydroxymethyl-4,5-dihydroxy-2-cyclopenten-1-yl)aminto-1,6-dihydro-5-nitro-6-oxopyrimidine]",Ki,[3],940 ± 110 µM

# — patent US5773424A, “Treatment of toxoplasmosis” (priority 1994, dated 1998)
